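Test compounds were applied to cells in 96-well plates for 48 hours at 5 doses. GI50 = concentration required for 50% inhibition of growth. TGI marks complete inhibition of growth.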
Columns and labels:
Assay in all cases: NCI-60 cell line screen, 48 h
[1] = system: NCI-H226 lung
[2] = system: NCI-H23 lung
[3] = system: NCI-H460 lung
[4] = system: RPMI-8226 leukemia
[5] = system: SF-295 CNS
[6] = system: SN12C renal
[7] = system: TK-10 renal
[8] = system: HL-60(TB) leukemia
[9] = system: DU-145 prostate
[10] = system: MDA-MB-231 breast

## COC(=O)C1=C(C(=O)OC)C2(OC(C)=O)c3ccccc3-c3ccccc3C12 (centres undefined)
[1]
  TGI: 31.2 µM
[2]
  TGI: 25.6 µM
[3]
  TGI: 32.8 µM
[4]
  TGI: 6.56 µM
[5]
  TGI: 33 µM
[6]
  TGI: 9.28 µM
[7]
  TGI: 8.08 µM

## Brc1ccc(-c2nnc(-c3nn(-c4ccccc4)c4nc5ccccc5nc34)o2)cc1
[8]
  TGI: > 100 µM
[1]
  TGI: > 100 µM
[2]
  TGI: > 100 µM
[3]
  TGI: > 100 µM
[4]
  TGI: > 100 µM
[5]
  TGI: > 100 µM
[6]
  TGI: > 100 µM
[7]
  TGI: > 100 µM

## CCn1cc(/C=C/C(C)c2cn(CC)c(=O)[nH]c2=O)c(=O)[nH]c1=O (centres undefined)
[8]
  TGI: > 100 µM
[2]
  TGI: > 100 µM
[3]
  TGI: > 100 µM
[4]
  TGI: > 100 µM
[5]
  TGI: > 100 µM
[6]
  TGI: > 100 µM
[7]
  TGI: > 100 µM

## CC(=O)O/N=C/c1ncccc1OC(C)=O
[8]
  TGI: > 100 µM
[1]
  TGI: > 100 µM
[2]
  TGI: > 100 µM
[3]
  TGI: > 100 µM
[5]
  TGI: > 100 µM
[6]
  TGI: > 100 µM
[7]
  TGI: > 100 µM

## CCOC(=O)c1sc2nc3sc(N=Nc4ccc(Cl)cc4)c(O)n3c(=S)c2c1C
[9]
  GI50: 31.2 µM
  TGI: > 100 µM
[8]
  GI50: > 100000 nM
  TGI: > 100 µM
[1]
  TGI: 21.6 µM
[2]
  GI50: 14200 nM
  TGI: 42.4 µM
[3]
  GI50: 25900 nM
  TGI: > 100 µM
[4]
  GI50: 21.4 µM
  TGI: > 100 µM
[5]
  GI50: 31 µM
  TGI: > 100 µM
[6]
  GI50: 15500 nM
  TGI: 46.5 µM
[7]
  GI50: 25900 nM
  TGI: 96.4 µM

## COC1=CC(O)(CC(N)=O)c2ccccc2C1=O (centres undefined)
[8]
  TGI: > 100 µM
[1]
  TGI: > 100 µM
[3]
  TGI: > 100 µM
[4]
  TGI: > 100 µM
[5]
  TGI: > 100 µM
[6]
  TGI: > 100 µM
[7]
  TGI: > 100 µM

## Cc1cc(N(CCC#N)S(C)(=O)=O)ccc1C=O
[8]
  TGI: > 100 µM
[1]
  TGI: > 100 µM
[2]
  TGI: > 100 µM
[3]
  TGI: > 100 µM
[4]
  TGI: > 100 µM
[5]
  TGI: > 100 µM
[6]
  TGI: > 100 µM

## CCC[CH2][Sn]([CH2]CCC)([O]C(=O)c1cc(F)cc(F)c1)[O]C(=O)c1cc(F)cc(F)c1
[8]
  GI50: 409 nM
  TGI: 2.17 µM
[1]
  GI50: 1340 nM
  TGI: 2.65 µM
[2]
  GI50: 700 nM
  TGI: 2 µM
[3]
  GI50: 1540 nM
  TGI: 3.02 µM
[5]
  GI50: 1.34 µM
  TGI: 2.62 µM
[6]
  GI50: 1350 nM
  TGI: 2.68 µM
[7]
  GI50: 1300 nM
  TGI: 2.61 µM

## Cc1ccc(NC(=O)c2cccc([N+](=O)[O-])c2O)c([N+](=O)[O-])c1
[8]
  TGI: > 100 µM
[1]
  TGI: 8.4 µM
[2]
  TGI: 27.6 µM
[3]
  TGI: 18.9 µM
[4]
  TGI: > 100 µM
[5]
  TGI: 32.8 µM
[6]
  TGI: 53.8 µM

## CCCN(CCCC(NC(C)=O)C(=O)NCc1ccccc1)C(=O)NC (centres undefined)
[1]
  TGI: > 100 µM
[2]
  TGI: > 100 µM
[3]
  TGI: > 100 µM
[4]
  TGI: > 100 µM
[5]
  TGI: > 100 µM
[6]
  TGI: > 100 µM
[7]
  TGI: > 100 µM

## N/N=C1\C(=O)N(C2CCCCC2)C(=O)C1C(=O)NC1CCCCC1 (centres undefined)
[8]
  TGI: 89.3 µM
[1]
  TGI: > 100 µM
[2]
  TGI: > 100 µM
[3]
  TGI: > 100 µM
[4]
  TGI: > 100 µM
[5]
  TGI: > 100 µM
[6]
  TGI: 93.6 µM

## COc1ccc(C2=NNC(=O)OC2c2ccccc2)cc1 (centres undefined)
[8]
  TGI: > 100 µM
[1]
  TGI: > 100 µM
[2]
  TGI: > 100 µM
[3]
  TGI: > 100 µM
[4]
  TGI: > 100 µM
[5]
  TGI: > 100 µM
[6]
  TGI: > 100 µM
[7]
  TGI: > 100 µM

## COc1ccc(/C(=N/NC(=O)NN)C(c2ccc(OC)cc2)C2(O)CNc3c(Cl)cc(Cl)cc32)cc1 (centres undefined)
[8]
  TGI: > 100 µM
[1]
  TGI: > 100 µM
[2]
  TGI: > 100 µM
[3]
  TGI: > 100 µM
[4]
  TGI: > 100 µM
[5]
  TGI: > 100 µM
[6]
  TGI: > 100 µM
[7]
  TGI: > 100 µM

## CCOC(=O)C(=O)Nc1c(F)cc(F)cc1Br
[8]
  TGI: > 100 µM
[1]
  TGI: > 100 µM
[2]
  TGI: > 100 µM
[3]
  TGI: > 100 µM
[4]
  TGI: > 100 µM
[5]
  TGI: > 100 µM
[6]
  TGI: > 100 µM
[7]
  TGI: > 100 µM

## CCOC(=O)N1CCc2cc(OC)c(OC)c3c2C1CC3=O (centres undefined)
[8]
  TGI: > 100 µM
[3]
  TGI: > 100 µM
[4]
  TGI: > 100 µM
[5]
  TGI: > 100 µM
[6]
  TGI: > 100 µM
[7]
  TGI: > 100 µM

## COc1cc(/C=C/c2cc(/C=C/c3ccc(O)c(OC)c3)n(-c3c(C)cccc3C)c(=O)n2)ccc1O
[8]
  GI50: 271 nM
  TGI: 1.11 µM
[10]
  GI50: 1760 nM
  TGI: 9.95 µM
[1]
  GI50: 2360 nM
  TGI: 7.59 µM
[2]
  GI50: 1250 nM
  TGI: 3.98 µM
[3]
  GI50: 683 nM
  TGI: 4.37 µM
[6]
  GI50: 1660 nM
  TGI: > 100 µM
[7]
  GI50: 1140 nM
  TGI: 4.87 µM

## O=C(CC1(O)C(=O)Nc2ccccc21)c1ccccc1Cl (centres undefined)
[8]
  TGI: > 100 µM
[1]
  TGI: > 100 µM
[2]
  TGI: > 100 µM
[3]
  TGI: > 100 µM
[4]
  TGI: > 100 µM
[5]
  TGI: > 100 µM
[6]
  TGI: > 100 µM
[7]
  TGI: > 100 µM

## COc1ccc(C(O)/C(=N\NC(N)=S)c2nc3ccc([N+](=O)[O-])cc3[nH]c2=O)cc1OC (centres undefined)
[8]
  TGI: > 100 µM
[1]
  TGI: > 100 µM
[2]
  TGI: > 100 µM
[3]
  TGI: > 100 µM
[4]
  TGI: > 100 µM
[5]
  TGI: > 100 µM
[7]
  TGI: > 100 µM

Reference: PubChem BioAssay (NCI)
